{"source": "patent US12024571B2", "about": "“Anti-erythropoietin receptor peptide” (Epo-Med Inc., priority 2018, dated 2024)", "key": {"[1]": {"tested_on": "human T cell leukemia derived ATL-2 cells", "assay": "ATL-2 cell proliferation, WST assay", "assay_type": "cell-based", "conditions": "150 μM, 72 hours, FIG. 39", "protocol": "Human T cell leukemia derived ATL-2 cells (provided by Dr. Maeda at the Kyoto University) were passaged (twice/week) under the condition of 37° C. and 5% CO2-95% air using an RPMI-1640 medium (Sigma, R8758-500 mL) comprising 10% fetal bovine serum (biowest, S182H-500). The ATL-2 cells were collected from a culture flask. The cells were suspended in the medium and then seeded on a 96-well microplate (3×10^3/0.05 mL/well). After culturing the cells overnight, a medium comprising the test compounds (total of 32 compounds, final concentration of 150 μM) was added (0.05 mL/well, 3 wells/test compound). After 72 hours, the cell proliferation capability for each well was measured by a WST assay (DOJINDO LABORATORIES, Cell Counting Kit-8), and the inhibition ratio for each test compound against the control (test compound-free well) was calculated."}, "[2]": {"tested_on": "human pancreatic cancer derived AsPC-1 cells", "assay": "AsPC-1 cell proliferation, WST assay", "assay_type": "cell-based", "conditions": "72 hours", "protocol": "Human pancreatic cancer derived AsPC-1 cells (ECACC, 96020930) were passaged (twice/week) under the condition of 37° C. and 5% CO2-95% air using an RPMI-1640 medium (Sigma, R8758-500 ML) comprising 10% fetal bovine serum (biowest, S182H-500) and 1 mM sodium pyruvate (gibco, 11360-070). The AsPC-1 cells were collected from a culture dish using 0.05% trypsin-0.02% EDTA solution (Sigma, T4174-100 ML). The cells were suspended in the medium and then seeded on a 96-well microplate (3×10^3/0.05 mL/well). After culturing the cells overnight, a medium comprising the test compounds (total of 43 compounds, final concentration of 150 μM) was added (0.05 mL/well, 3 wells/test compound). After 72 hours, the cell proliferation capability for each well was measured by a WST assay (DOJINDO LABORATORIES, Cell Counting Kit-8), and the inhibition ratio for each test compound against the control (test compound-free well) was calculated.\nA WST assay is a viable cell count measuring method, which uses water-soluble tetrazolium salt WST-8 as a coloring reagent and uses water-soluble formazan generated by reduction of WST-8 as an indicator of viable cell count. NADH produced by a dehydrogenase in a cell converts WST-8 to water-soluble formazan. Since the generated water-soluble formazan has the maximum absorbance at about 450 nm, the viable cell count is indicated by measuring the absorbance at such a wavelength region.\nHuman pancreatic cancer derived AsPC-1 cells (ECACC, 96020930) were cultured, collected, and seeded on a 96-well microplate (3×10^3/0.05 mL/well) in the same manner as Example 3. After culturing the cells overnight, a medium comprising the test compounds (10, 30, or 100 μM) was added (0.05 mL/well, 3 wells/test compound). After 72 hours, the cell proliferation capability for each well was measured by a WST assay (DOJINDO LABORATORIES, Cell Counting Kit-8), and the inhibition ratio for each test compound against the control (test compound-free well) was computed."}, "[3]": {"tested_on": "human pancreatic cancer derived AsPC-1 cells", "assay": "Tumor growth in AsPC-1 cancer-bearing nude mouse model", "assay_type": "in vivo", "conditions": "intraperitoneal, 3 times daily, total 0.2 mg/day, 3 times a week for 2 weeks; FIG. 40", "protocol": "Human pancreatic cancer derived AsPC-1 cells (ECACC, 96020930) were cultured and collected in the same manner as Example 3, suspended in the RPMI-1640 medium described above comprising 10% Matrigel (BD Bioscience, 354234), and transplanted subcutaneously to the right side on the back of a 6-week-old male nude mouse (SLC, BALB/cSlc-nu/nu) (5×10^6/0.1 mL/mouse). The length (L) and width (W) of the tumor were measured using a digital caliper. When the tumor volume (V) calculated from the formula V=L×W^2/2 reached about 150 to 200 mm^3, the mice were separated into groups and administered with test compounds (total of 8 compounds including GT-11263). Saline was administered to a control group. The compounds were administered intraperitoneally (0.1 mL/mouse, 3 to 5 mice/test compound) 3 times daily (one hour interval, a total of 0.2 mg/day), 3 times a week for 2 weeks. The tumor size and body weight were measured twice a week to monitor the status of tumor growth and the effect of the administration of test compounds.\nIn the same manner as Example 5, human pancreatic cancer derived AsPC-1 cells were transplanted subcutaneously to the right side on the back of a 6-week-old male nude mouse (SLC, BALB/cSlc-nu/nu) (5×10^6/0.1 mL/mouse). The length (L) and width (W) of the tumor were measured using a digital caliper. When the tumor volume (V) calculated from the formula V=L×W^2/2 reached about 150 to 200 mm^3, the mice were separated into groups and administered with test compounds (GT-11269, GT-11309, and GT-11350). Saline was administered to a control group. The compounds were administered intraperitoneally (0.1 mL/mouse, 5 mice/test compound) 3 times daily (one hour interval, a total of 0.5 mg/day), twice a week for 4 weeks. The tumor size and body weight were measured twice a week to monitor the effect of the administration of test compounds (FIG. 45).\n(§1) In the same manner as Example 5, human pancreatic cancer derived AsPC-1 cells were transplanted subcutaneously to the right side on the back of a 6-week-old male nude mouse (SLC, BALB/cSlc-nu/nu), and when the tumor volume (V) reached about 150 to 200 mm^3, the mice were separated into groups and administered with test compounds (GT-11350). Saline was administered to a control group. The compounds were administered intraperitoneally (0.1 mL/mouse) 3 times daily (one hour interval, a total of 0.1 mg, 0.2 mg, or 0.4 mg/day), twice a week for 4 weeks. The tumor size and body weight were measured twice a week to monitor the effect of the dose of test compounds (FIG. 49).\nas §1, with “of” for “of 0.1 mg,”, “mg/day)” for “mg,”, “once daily (0.2” for “0.4”, “administration” for “dose”, “compounds.” for “compounds (FIG. 49).”"}, "[4]": {"tested_on": "human liver cancer derived HepG2 cells", "assay": "Lethal effect of synthetic peptides on HepG2 cells (Trypan blue positive cell count)", "assay_type": "cell-based", "conditions": "120, 60, 30 or 15 μM, 24 hours; FIGS. 34 to 37"}, "[5]": {"tested_on": "human liver cancer HepG2 cells", "assay": "Granule leakage of HepG2 cells exposed to peptides, under a microscope", "assay_type": "cell-based", "conditions": "HepG2 cells exposed to peptide", "description": "The peptides synthesized above were exposed to human liver cancer HepG2 cells and the leakage of granules under a microscope was studied. […] In view of the above, peptides GT-11258, GT-11261, and GT-11274 were expected to have a relatively strong activity."}}, "note": "Bridge positions count the residues as written; N and C are the ends. Square brackets hold non-standard residues; d marks the D form. Peptide text beside a SMILES is read from it. * marks the point of attachment. Ala(benzothiazol-2-yl) = N[C@@H](Cc1nc2ccccc2s1)C(=O)O; Phe(3,4-F2) = N[C@@H](Cc1ccc(F)c(F)c1)C(=O)O; Phe(3-Cl) = N[C@@H](Cc1cccc(Cl)c1)C(=O)O; Phe(4-Cl) = N[C@@H](Cc1ccc(Cl)cc1)C(=O)O; Phe(4-F) = N[C@@H](Cc1ccc(F)cc1)C(=O)O; Propionyl = CCC(=O)*", "data": [{"compound": "CSCC[C@@H]1NC(=O)[C@@H]2CCCN2C(=O)CNC(=O)[C@H](Cc2ccccc2)NC(=O)[C@H](Cc2c[nH]cn2)NC(=O)[C@@H](NC(=O)[C@H](CO)NC(C)=O)CSSC[C@@H](C(=O)N[C@@H](CCCCN)C(N)=O)NC(=O)[C@H](C(C)C)NC(=O)[C@H](Cc2c[nH]c3ccccc23)NC(=O)[C@H]([C@@H](C)O)NC1=O", "note": "[GT-11269, Ac-SCHFGPMTWVCK-NH2] (Ac-SCHFGPMTWVCK-NH2; disulfide 2-11)", "values": [{"measurement": "proliferation inhibiting action on ATL-2 cells (inhibition ratio against control)", "setting": "[1]", "result": "potent proliferation inhibiting action"}, {"measurement": "proliferation inhibiting action against AsPC-1 cells (inhibition ratio against control)", "setting": "[2]; 10, 30 or 100 μM, FIG. 43", "result": "potent proliferation inhibiting action"}, {"measurement": "antitumor effect (relative tumor volume)", "setting": "[3]", "result": "potent and had an early manifestation of effect"}]}, {"compound": "(propionyl)-SCHFGPLTWVCK-NH2 (Propionyl-SCHFGPLTWVCK-NH2; disulfide 2-11 (inferred)) [GT-11257]", "values": [{"measurement": "proliferation inhibiting action on AsPC-1 cells (inhibition ratio against control)", "setting": "[2]; 150 μM, FIG. 38", "result": "potent proliferation inhibiting action"}]}, {"compound": "Ac-SCH(3,4-difluoro-Phe)GPLT(2-benzothiazolylalanine)VCK-NH2 (Ac-SCH[Phe(3,4-F2)]GPLT[Ala(benzothiazol-2-yl)]VCK-NH2; disulfide 2-11 (inferred)) [GT-11305]", "values": [{"measurement": "HepG2 cell killing effect compared with YS12 (Trypan blue positive cells per 1 mm^2)", "setting": "[4]", "result": "equivalent or greater than that of YS12"}]}, {"compound": "Ac-SCH(3,4-difluoro-Phe)GPLT(2-quinolylalanine)VCK-NH2 [GT-11304]", "values": [{"measurement": "HepG2 cell killing effect compared with YS12 (Trypan blue positive cells per 1 mm^2)", "setting": "[4]", "result": "equivalent or greater than that of YS12"}]}, {"compound": "Ac-SCH(3,4-difluoro-Phe)GPLT(8-quinolylalanine)VCK-NH2 [GT-11303]", "values": [{"measurement": "HepG2 cell killing effect compared with YS12 (Trypan blue positive cells per 1 mm^2)", "setting": "[4]", "result": "equivalent or greater than that of YS12"}]}, {"compound": "Ac-SCH(m-chloro-Phe)GPLTWVCK-NH2 (Ac-SCH[Phe(3-Cl)]GPLTWVCK-NH2; disulfide 2-11 (inferred)) [GT-11260]", "values": [{"measurement": "leakage of granules under a microscope", "setting": "[5]", "result": "relatively low degree of granule leakage"}, {"measurement": "HepG2 cell killing effect compared with YS12 (Trypan blue positive cells per 1 mm^2)", "setting": "[4]", "result": "equivalent or greater than that of YS12"}]}, {"compound": "Ac-SCH(p-chloro-Phe)GPLTWVCK-NH2 (Ac-SCH[Phe(4-Cl)]GPLTWVCK-NH2; disulfide 2-11 (inferred)) [GT-11259]", "values": [{"measurement": "leakage of granules under a microscope", "setting": "[5]", "result": "relatively low degree of granule leakage"}, {"measurement": "HepG2 cell killing effect compared with YS12 (Trypan blue positive cells per 1 mm^2)", "setting": "[4]", "result": "equivalent or greater than that of YS12"}]}, {"compound": "Ac-SCH(p-fluoro-Phe)GPLT(2-benzothiazolylalanine)VCK-NH2 [GT-11307]", "values": [{"measurement": "HepG2 cell killing effect compared with YS12 (Trypan blue positive cells per 1 mm^2)", "setting": "[4]", "result": "equivalent or greater than that of YS12"}]}, {"compound": "Ac-SCH(p-fluoro-Phe)GPLT(2-quinolylalanine)VCK-NH2 [GT-11306]", "values": [{"measurement": "HepG2 cell killing effect compared with YS12 (Trypan blue positive cells per 1 mm^2)", "setting": "[4]", "result": "equivalent or greater than that of YS12"}]}, {"compound": "Ac-SCH(p-fluoro-Phe)GPLTWVCK-NH2 (Ac-SCH[Phe(4-F)]GPLTWVCK-NH2; disulfide 2-11 (inferred)) [GT-11258]", "values": [{"measurement": "leakage of granules under a microscope", "setting": "[5]", "result": "significant granule leakage"}]}, {"compound": "Ac-SCH(phenethylglycine)GPLTWVCK-NH2 (Ac-SCH[phenethylglycine]GPLTWVCK-NH2; disulfide 2-11 (inferred)) [GT-11263]", "values": [{"measurement": "antitumor effect (relative tumor volume)", "setting": "[3]", "result": "potent antitumor effect"}]}, {"compound": "Ac-SCHFGPATWVCK-NH2 (disulfide 2-11 (inferred)) [GT-11268]", "values": [{"measurement": "HepG2 cell killing effect compared with YS12 (Trypan blue positive cells per 1 mm^2)", "setting": "[4]", "result": "equivalent or greater than that of YS12"}]}, {"compound": "Ac-SCHFGPLT(8-quinolylalanine)VCK-NH2 (Ac-SCHFGPLT[8‑quinolylalanine]VCK-NH2; disulfide 2-11 (inferred)) [GT-11274]", "values": [{"measurement": "leakage of granules under a microscope", "setting": "[5]", "result": "significant granule leakage"}, {"measurement": "HepG2 cell killing effect compared with YS12 (Trypan blue positive cells per 1 mm^2)", "setting": "[4]", "result": "equivalent or greater than that of YS12"}]}, {"compound": "Ac-SCHYGPLT(2-quinolylalanine)VCK-NH2 (Ac-SCHYGPLT[2‑quinolylalanine]VCK-NH2; disulfide 2-11 (inferred)) [GT-11308]", "values": [{"measurement": "proliferation inhibiting action on ATL-2 cells (inhibition ratio against control)", "setting": "[1]", "result": "potent proliferation inhibiting action"}, {"measurement": "HepG2 cell killing effect compared with YS12 (Trypan blue positive cells per 1 mm^2)", "setting": "[4]", "result": "equivalent or greater than that of YS12"}]}, {"compound": "Ac-SCHYGPLTWVCK-NH2 (disulfide 2-11 (inferred)) [GT-11261]", "values": [{"measurement": "leakage of granules under a microscope", "setting": "[5]", "result": "significant granule leakage"}, {"measurement": "HepG2 cell killing effect compared with YS12 (Trypan blue positive cells per 1 mm^2)", "setting": "[4]", "result": "equivalent or greater than that of YS12"}]}, {"compound": "Ac-kcvwtlGGfhcs-NH2 (Ac-[dK][dC][dV][dW][dT][dL]GG[dF][dH][dC][dS]-NH2; disulfide 2-11 (inferred)) [GT-11280]", "values": [{"measurement": "HepG2 cell killing effect compared with YS12 (Trypan blue positive cells per 1 mm^2)", "setting": "[4]", "result": "equivalent or greater than that of YS12"}]}]}
